Measured values taken from patent publication US7763615B2, “Ecteinascidin analogs for use as antitumour agents” (priority 2001, dated 2010).
Like-named read-outs stand apart in the source and are kept apart here.

Legend:
Assay in all cases: cells
Type in all cases: cell-based
LOVO-DOX = conditions: Homo sapiens
Method in brief: (§1)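 Human tumour lines grown in RPMI 1640 with 10% FBS were seeded at 5×10^3 cells per well, left 18 hours to attach, then exposed to samples (10 to 10^−8 μg/ml) for 48 hours. Growth was quantified by sulphorhodamine B staining of TCA-fixed cells, with absorbance read at 490 nm.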

PANC-1 = conditions: Homo sapiens
Method in brief: as §1

A549 = conditions: for GI50: read-out: GI50; for IC (TGI): read-out: TGI
Method in brief: as §1

DU145 = conditions: Homo sapiens
Method in brief: as §1

SK-BR3 = conditions: Homo sapiens
Method in brief: as §1

K562 = conditions: Homo sapiens
Method in brief: as §1

HELA = conditions: for GI50 / CC50: Homo sapiens
Method in brief: as §1

HELA-APL = conditions: for GI50 / CC50: Homo sapiens
Method in brief: as §1

MEL-28 = conditions: Homo sapiens
Method in brief: as §1

LOVO = conditions: Homo sapiens
Method in brief: as §1

IGROV = conditions: Homo sapiens
Method in brief: as §1

HT29 = test system: HT29
Method in brief: as §1

IGROV-ET = conditions: Homo sapiens
Method in brief: as §1

LNCAP = conditions: Homo sapiens
Method in brief: as §1

[1] = 48 h, LOVO-DOX, 48 hours exposure, SRB
[2] = LOVO-DOX, 48 hours exposure, SRB, read-out: LC50 (the source's name)
[3] = PANC-1, 48 h, PANC-1, 48 hours exposure, SRB
[4] = PANC-1, 48 hours exposure, SRB, read-out: LC50 (the source's name)
[5] = DU-145, 48 h, DU145, 48 hours exposure, SRB
[6] = DU-145, DU145, 48 hours exposure, SRB, read-out: LC50 (the source's name)
[7] = SK-BR-3, 48 h, SK-BR3, 48 hours exposure, SRB
[8] = SK-BR-3, SK-BR3, 48 hours exposure, SRB, read-out: LC50 (the source's name)
[9] = K562, 48 h, K562, 48 hours exposure, SRB
[10] = K562, 48 hours exposure, SRB, read-out: LC50 (the source's name)
[11] = HELA, 48 hours exposure, SRB, read-out: LC50 (the source's name)
[12] = HELA-APL, 48 hours exposure, SRB
[13] = HELA-APL, 48 hours exposure, SRB, read-out: LC50 (the source's name)
[14] = SK-MEL-28, 48 h, MEL-28, 48 hours exposure, SRB
[15] = SK-MEL-28, MEL-28, 48 hours exposure, SRB, read-out: LC50 (the source's name)
[16] = LoVo, 48 h, 48 hours exposure, SRB
[17] = LOVO, 48 hours exposure, SRB, read-out: LC50 (the source's name)
[18] = 48 hours exposure, SRB, read-out: LC50 (the source's name)
[19] = 48 h, IGROV-ET, 48 hours exposure, SRB
[20] = IGROV-ET, 48 hours exposure, SRB, read-out: LC50 (the source's name)
[21] = LNCaP, 48 h, 48 hours exposure, SRB
[22] = LNCAP, 48 hours exposure, SRB, read-out: LC50 (the source's name)
[23] = Homo sapiens, A549, 48 h, A549, 48 hours exposure, SRB
[24] = Homo sapiens, HT-29, 48 h, HT29, 48 hours exposure, SRB
[25] = Homo sapiens, A549, 48 h, A549, 48 hours exposure, SRB, read-out: LC50 (the source's name)
[26] = Homo sapiens, HT-29, 48 h, HT29, 48 hours exposure, SRB, read-out: LC50 (the source's name)

## COc1c(C)cc2c(c1O)[C@@H]1C3[C@@H]4SC[C@]5(C(=O)COC[C@@H](c6c7c(c(C)c(OC(C)=O)c64)OCO7)N3[C@@H](C#N)[C@H](C2)N1C)c1[nH]c2ccccc2c1CCN5C (stereo partly drawn) [Compound 14]
LOVO-DOX; [1]
  GI50: 584 nM
  IC (TGI): 3840 nM
LOVO-DOX; [2]
  CC50: 12900 nM
PANC-1; [3]
  GI50: 276 nM
  IC (TGI): 825 nM
PANC-1; [4]
  CC50: 12900 nM
A549; A549, 48 hours exposure, SRB
  TGI: 8.25E−07 Molar
  GI50: 264 nM
A549; A549, 48 hours exposure, SRB, read-out: LC50 (the source's name)
  CC50: 6860 nM
DU145; [5]
  GI50: 94.6 nM
  IC (TGI): 1390 nM
DU145; [6]
  CC50: 12900 nM
SK-BR3; [7]
  GI50: 217 nM
  IC (TGI): 537 nM
SK-BR3; [8]
  CC50: 1620 nM
K562; [9]
  GI50: 44.7 nM
  IC (TGI): 174 nM
K562; [10]
  CC50: 1290 nM
HELA; HELA, 48 hours exposure, SRB
  TGI: 3.10E−07 Molar
  GI50: 114 nM
HELA; [11]
  CC50: 810 nM
HELA-APL; [12]
  TGI: 4.88E−07 Molar
HELA-APL; 48 h
  GI50: 243 nM
HELA-APL; [13]
  CC50: 980 nM
MEL-28; [14]
  GI50: 198 nM
  IC (TGI): 519 nM
MEL-28; [15]
  CC50: 2370 nM
LOVO; [16]
  GI50: 141 nM
  IC (TGI): 393 nM
LOVO; [17]
  CC50: 1100 nM
IGROV; 48 h, 48 hours exposure, SRB
  GI50: 226 nM
  IC (TGI): 744 nM
IGROV; [18]
  CC50: 5140 nM
HT29; HT29, 48 hours exposure, SRB
  GI50: 418 nM
  TGI: 1.59E−06 Molar
HT29; HT29, 48 hours exposure, SRB, read-out: LC50 (the source's name)
  CC50: 12900 nM
IGROV-ET; [19]
  GI50: 569 nM
  IC (TGI): 1300 nM
IGROV-ET; [20]
  CC50: 12900 nM
LNCAP; [21]
  GI50: 61.2 nM
  IC (TGI): 177 nM
LNCAP; [22]
  CC50: 535 nM

## COc1c(C)cc2c(c1O)[C@@H]1C3[C@@H]4SC[C@]5(NCCc6c5[nH]c5ccccc65)C(=O)COC[C@@H](c5c6c(c(C)c(OC(=O)C(F)(F)C(F)(F)C(F)(F)F)c54)OCO6)N3[C@@H](C#N)[C@H](C2)N1C (stereo partly drawn) [Compound 51]
LOVO-DOX; [1]
  GI50: 381 nM
  IC (TGI): 3090 nM
LOVO-DOX; 48 h, read-out: LC50
  CC50: 11200 nM
PANC-1; [3]
  GI50: 41.9 nM
  IC (TGI): 133 nM
PANC-1; PANC-1, 48 h, read-out: LC50
  CC50: 2000 nM
A549; [23]
  GI50: 26.7 nM
  IC (TGI): 61.1 nM
A549; Homo sapiens, A549, 48 h, read-out: LC50, A549, 48 hours exposure, SRB
  CC50: 1290 nM
DU145; [5]
  GI50: 48.3 nM
  IC (TGI): 323 nM
DU145; DU-145, 48 h, read-out: LC50
  CC50: 11200 nM
SK-BR3; [7]
  GI50: 39.8 nM
  IC (TGI): 99.3 nM
SK-BR3; SK-BR-3, 48 h, read-out: LC50
  CC50: 3110 nM
K562; [9]
  GI50: 16.5 nM
  IC (TGI): 46.2 nM
K562; K562, 48 h, read-out: LC50
  CC50: 114 nM
HELA; HELA, 48 hours exposure, SRB
  TGI: 4.85E−08 Molar
  GI50: 24 nM
HELA; HeLa, 48 h, read-out: LC50
  CC50: 98 nM
HELA-APL; [12]
  TGI: 4.97E−08 Molar
HELA-APL; 48 h
  GI50: 29.1 nM
HELA-APL; 48 h, read-out: LC50
  CC50: 84.6 nM
MEL-28; [14]
  GI50: 28.4 nM
  IC (TGI): 50.3 nM
MEL-28; SK-MEL-28, 48 h, read-out: LC50
  CC50: 89.3 nM
LOVO; [16]
  GI50: 21.1 nM
  IC (TGI): 38.8 nM
LOVO; LoVo, 48 h, read-out: LC50
  CC50: 71 nM
IGROV; 48 h, 48 hours exposure, SRB
  GI50: 32.3 nM
  IC (TGI): 63.3 nM
IGROV; 48 h, read-out: LC50
  CC50: 3550 nM
HT29; [24]
  GI50: 38.2 nM
  IC (TGI): 1310 nM
HT29; Homo sapiens, HT-29, 48 h, read-out: LC50, HT29, 48 hours exposure, SRB
  CC50: 11100 nM
IGROV-ET; [19]
  GI50: 263 nM
  IC (TGI): 7470 nM
IGROV-ET; 48 h, read-out: LC50
  CC50: 11200 nM
LNCAP; [21]
  GI50: 13.1 nM
  IC (TGI): 27 nM
LNCAP; LNCaP, 48 h, read-out: LC50
  CC50: 54.8 nM

## C=COC(=O)Oc1c(C)c2c(c3c1[C@H]1SC[C@]4(NCCC5c6ccccc6NC54)C(=O)OC[C@@H]3N3C1[C@H]1c4c(cc(C)c(OC)c4OC(=O)OC=C)C[C@@H]([C@@H]3C#N)N1C)OCO2 (stereo partly drawn) [Compound 68]
LOVO-DOX; [1]
  GI50: 112 nM
  IC (TGI): 743 nM
LOVO-DOX; [2]
  CC50: 11700 nM
PANC-1; [3]
  GI50: 48.1 nM
  IC (TGI): 125 nM
PANC-1; [4]
  CC50: 11700 nM
A549; [23]
  GI50: 28.3 nM
  IC (TGI): 49.5 nM
A549; [25]
  CC50: 101 nM
DU145; [5]
  GI50: 29.9 nM
  IC (TGI): 86.5 nM
DU145; [6]
  CC50: 10300 nM
SK-BR3; [7]
  GI50: 29 nM
  IC (TGI): 60.9 nM
SK-BR3; [8]
  CC50: 206 nM
K562; [9]
  GI50: 20.4 nM
  IC (TGI): 44.7 nM
K562; [10]
  CC50: 97.5 nM
HELA; HELA, 48 hours exposure, SRB
  TGI: 6.03E−08 Molar
  GI50: 32.5 nM
HELA; [11]
  CC50: 112 nM
HELA-APL; [12]
  TGI: 6.19E−08 Molar
HELA-APL; 48 h
  GI50: 37 nM
HELA-APL; [13]
  CC50: 103 nM
MEL-28; [14]
  GI50: 7.52 nM
  IC (TGI): 22.4 nM
MEL-28; [15]
  CC50: 67.2 nM
LOVO; [16]
  GI50: 27.1 nM
  IC (TGI): 49.7 nM
LOVO; [17]
  CC50: 91.3 nM
IGROV; 48 h, 48 hours exposure, SRB
  GI50: 21.7 nM
  IC (TGI): 61.6 nM
IGROV; [18]
  CC50: 1090 nM
HT29; [24]
  GI50: 317 nM
  IC (TGI): 95.9 nM
HT29; [26]
  CC50: 11700 nM
IGROV-ET; [19]
  GI50: 30.8 nM
  IC (TGI): 68.9 nM
IGROV-ET; [20]
  CC50: 206 nM
LNCAP; [21]
  GI50: 11.5 nM
  IC (TGI): 26.6 nM
LNCAP; [22]
  CC50: 61.3 nM

## COc1c(C)cc2c(c1O)[C@@H]1C3[C@@H]4SC[C@]5(NCCc6c5[nH]c5ccccc65)C(=O)COC[C@@H](c5c6c(c(C)c(OC(=O)OC(C)(C)C)c54)OCO6)N3[C@@H](C#N)[C@H](C2)N1C (stereo partly drawn) [Compound 57]
LOVO-DOX; [1]
  GI50: 487 nM
  IC (TGI): 6700 nM
LOVO-DOX; [2]
  CC50: 12200 nM
PANC-1; [3]
  GI50: 113 nM
  IC (TGI): 662 nM
PANC-1; [4]
  CC50: 12200 nM
A549; [23]
  GI50: 103 nM
  IC (TGI): 607 nM
A549; [25]
  CC50: 12200 nM
DU145; [5]
  GI50: 47.7 nM
  IC (TGI): 1840 nM
DU145; [6]
  CC50: 12200 nM
SK-BR3; [7]
  GI50: 67.6 nM
  IC (TGI): 313 nM
SK-BR3; [8]
  CC50: 7990 nM
K562; [9]
  GI50: 47.7 nM
  IC (TGI): 466 nM
K562; [10]
  CC50: 12200 nM
HELA; HELA, 48 hours exposure, SRB
  TGI: 1.46E−07 Molar
  GI50: 43.7 nM
HELA; [11]
  CC50: 652 nM
HELA-APL; [12]
  TGI: 2.03E−07 Molar
HELA-APL; 48 h
  GI50: 61.4 nM
HELA-APL; [13]
  CC50: 850 nM
MEL-28; [14]
  GI50: 64.7 nM
  IC (TGI): 209 nM
MEL-28; [15]
  CC50: 662 nM
LOVO; [16]
  GI50: 73 nM
  IC (TGI): 257 nM
LOVO; [17]
  CC50: 905 nM
IGROV; 48 h, 48 hours exposure, SRB
  GI50: 71.8 nM
  IC (TGI): 460 nM
IGROV; [18]
  CC50: 7430 nM
HT29; [24]
  GI50: 165 nM
  IC (TGI): 1410 nM
HT29; [26]
  CC50: 12200 nM
IGROV-ET; [19]
  GI50: 394 nM
  IC (TGI): 1150 nM
IGROV-ET; [20]
  CC50: 12200 nM
LNCAP; [21]
  GI50: 33.3 nM
  IC (TGI): 71.7 nM
LNCAP; [22]
  CC50: 23.2 nM
